Earlier results, collected in patent US5695952A, “Method for producing [Leu^13 ]motilin” (Kyowa Hakko Kogyo Co., Ltd., priority 1986, dated 1997).

Details: M. Fujino et al., Chem. Pharm. Bull., 26, 101 (1978)

motilin activity after oxidation of Met to the sulfoxide form: decreased motilin activity
Structure (SMILES): CC[C@H](C)[C@H](NC(=O)[C@@H]1CCCN1C(=O)[C@@H](NC(=O)[C@@H](N)Cc1ccccc1)C(C)C)C(=O)N[C@@H](Cc1ccccc1)C(=O)N[C@H](C(=O)N[C@@H](Cc1ccc(O)cc1)C(=O)NCC(=O)N[C@@H](CCC(=O)O)C(=O)N[C@@H](CC(C)C)C(=O)N[C@@H](CCC(N)=O)C(=O)N[C@@H](CCCNC(=N)N)C(=O)N[C@@H](CCSC)C(=O)N[C@@H](CCC(N)=O)C(=O)N[C@@H](CCC(=O)O)C(=O)N[C@@H](CCCCN)C(=O)N[C@@H](CCC(=O)O)C(=O)N[C@@H](CCCNC(=N)N)C(=O)N[C@@H](CC(N)=O)C(=O)N[C@@H](CCCCN)C(=O)NCC(=O)N[C@@H](CCC(N)=O)C(=O)O)[C@@H](C)O [motilin]
